Data as given in patent publication US8163756B2 (priority 2004, dated 2012).
Counter-ions that a name gives are not always drawn. Like-named read-outs stand apart in the source and are kept apart here.

Tests used:
Assay type in all cases: biochemical
[1] = biological target: phosphorylated p-38-alpha kinase (Homo sapiens, UniProt Q16539); assay: P-38 alpha kinase assay P1 (coupled spectrophotometric, 2 h pre-incubation)
Abl kinase = biological target: T1, Abl kinase (Homo sapiens, UniProt P00519); assay: Abl kinase assay A1 (pyruvate kinase/lactate dehydrogenase coupled, spectrophotometric)
T1 sequence (P00519 229-512): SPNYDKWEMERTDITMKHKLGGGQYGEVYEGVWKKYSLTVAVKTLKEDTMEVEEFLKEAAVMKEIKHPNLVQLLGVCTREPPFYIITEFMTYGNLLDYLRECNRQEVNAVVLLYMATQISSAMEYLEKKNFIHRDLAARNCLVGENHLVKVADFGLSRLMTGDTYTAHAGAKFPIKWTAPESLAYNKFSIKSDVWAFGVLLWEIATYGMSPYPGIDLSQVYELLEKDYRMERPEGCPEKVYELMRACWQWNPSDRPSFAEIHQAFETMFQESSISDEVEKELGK
Description: (§1) IC50 values were calculated from a series of percent inhibition values determined at a range of inhibitor concentrations using software routines as implemented in the GraphPad Prism software package.

B-Raf(V599E) kinase = B-Raf(V599E) kinase (Homo sapiens, UniProt P15056, V600E); assay: B-Raf(V599E) kinase assay B1 (construct 1, MEK1 substrate, coupled spectrophotometric)
Description: The test compounds were incubated with the reaction mixtureat 30° C. for 2 h. […] The reaction rate was calculated using the […] time frame. […] IC50 values were calculated from a series of percent inhibition values determined at a range of inhibitor concentrations using software routines as implemented in the GraphPad Prism software package.

KDR kinase = KDR kinase (Homo sapiens, UniProt P35968, DEL940-989/E990V); assay: KDR kinase assay K1 (pyruvate kinase/lactate dehydrogenase coupled, spectrophotometric)
Description: as §1

[2] = method P1 (2 h pre-incubation), read-out: P-38 Data
[3] = Method A1, read-out: Abl Data (IC50)
[4] = Method K1, read-out: KDR Data (IC50)

Sequence of phosphorylated p-38-alpha kinase (Q16539 1-360 isoform Q16539-2): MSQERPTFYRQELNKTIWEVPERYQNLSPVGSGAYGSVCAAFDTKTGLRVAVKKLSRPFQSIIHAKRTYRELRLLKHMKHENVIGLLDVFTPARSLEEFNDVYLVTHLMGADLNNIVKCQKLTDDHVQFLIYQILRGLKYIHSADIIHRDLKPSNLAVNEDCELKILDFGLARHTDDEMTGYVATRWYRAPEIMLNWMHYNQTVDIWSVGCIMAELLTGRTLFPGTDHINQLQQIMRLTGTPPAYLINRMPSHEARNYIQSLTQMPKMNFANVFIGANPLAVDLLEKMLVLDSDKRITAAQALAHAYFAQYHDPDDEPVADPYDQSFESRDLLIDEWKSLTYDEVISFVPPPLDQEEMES
Sequence of KDR kinase (P35968 with tags, fused parts or gaps DEL940-989/E990V): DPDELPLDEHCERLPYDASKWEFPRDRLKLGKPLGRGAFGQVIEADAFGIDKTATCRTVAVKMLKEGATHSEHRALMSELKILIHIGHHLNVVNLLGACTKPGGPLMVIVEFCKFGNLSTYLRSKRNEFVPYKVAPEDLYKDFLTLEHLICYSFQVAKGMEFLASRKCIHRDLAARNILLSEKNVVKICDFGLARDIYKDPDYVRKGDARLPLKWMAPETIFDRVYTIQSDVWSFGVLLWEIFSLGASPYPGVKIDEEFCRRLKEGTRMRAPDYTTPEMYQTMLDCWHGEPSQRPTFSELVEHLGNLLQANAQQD
Sequence of B-Raf(V599E) kinase (P15056 with tags, fused parts or gaps V600E): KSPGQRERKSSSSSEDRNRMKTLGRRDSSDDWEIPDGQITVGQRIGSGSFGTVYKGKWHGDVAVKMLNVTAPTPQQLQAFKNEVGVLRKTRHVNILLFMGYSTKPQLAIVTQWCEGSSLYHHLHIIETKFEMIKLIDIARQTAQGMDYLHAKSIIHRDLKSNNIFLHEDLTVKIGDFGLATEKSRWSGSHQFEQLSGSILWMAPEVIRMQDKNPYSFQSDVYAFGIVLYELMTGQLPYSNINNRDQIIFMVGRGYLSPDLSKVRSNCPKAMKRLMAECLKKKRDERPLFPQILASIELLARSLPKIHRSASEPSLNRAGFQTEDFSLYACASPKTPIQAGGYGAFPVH

| SMILES | IC50 [1, 2] [nM] | IC50 (Abl kinase; [3]) [nM] | IC50 (B-Raf(V599E) kinase) [nM] | IC50 (KDR kinase; [4]) [nM] | IC50 [1] [nM] | IC50 (Abl kinase) [nM] | IC50 (KDR kinase) [nM] |
| --- | --- | --- | --- | --- | --- | --- | --- |
| CC(C)(C)c1cc(NC(=O)Nc2cccc(Cl)c2Cl)n(-c2cccc(CO)c2)n1 [Example 1, 1-[3-t-butyl-1-(3-hydroxymethyl-phenyl)-1H-pyrazol-5-yl]-3-(2,3-dichlorophenyl)urea] | 11 | 310 | 4.6 | 130 | – | – | – |
| CC(C)(C)c1cc(NC(=O)Nc2cccc(Cl)c2Cl)n(-c2cccc(C(N)=O)c2)n1 [Example 13, 1-[3-t-butyl-1-(3-carbamoylphenyl)-1H-pyrazol-5-yl]-3-(2,3-dichlorophenyl)urea] | 45 | 2000 | 5.2 | 360 | – | – | – |
| CC(C)(C)c1cc(NC(=O)Nc2cccc(Cl)c2Cl)n(-c2ccc(C(C)(C)O)cc2)n1 [Example 20, 1-{3-t-butyl-1-[4-(2-hydroxypropan-2-yl)phenyl]-1H-pyrazol-5-yl}-3-(2,3-dichlorophenyl)urea] | 60 | 1600 | 8.5 | 130 | – | – | – |
| CC(C)(C)c1cc(NC(=O)Nc2cccc(Cl)c2Cl)n(-c2cccc(CCO)c2)n1 [Example 24, 1-{3-t-butyl-1-[3-(2-hydroxyethyl)phenyl]-1H-pyrazol-5-yl}-3-(2,3-dichlorophenyl)urea] | 11 | 830 | 2.3 | 380 | – | – | – |
| CC(C)(C)c1cc(NC(=O)Nc2cccc(Cl)c2Cl)n(-c2cccc(C(=N)N)c2)n1 [Example 44, 1-[3-t-butyl-1-(3-carbamimidoylphenyl)-1H-pyrazol-5-yl]-3-(2,3-dichlorophenyl)urea] | 70 | 440 | 4 | 2400 | – | – | – |
| CC(C)(C)c1cc(NC(=O)Nc2cccc(Cl)c2Cl)n(-c2ccc(CCO)cc2)n1 [Example 45, 1-{3-t-butyl-1-[4-(2-hydroxyethyl)-phenyl]-1H-pyrazol-5-yl}-3-(2,3-dichlorophenyl)urea] | 5 | 780 | 6.2 | 360 | – | – | – |
| CC(C)(C)c1cc(NC(=O)Nc2cccc(Cl)c2Cl)n(-c2cccc(CCC(=O)O)c2)n1 [Example 46, 3-(3-{3-t-Butyl-5-[3-(2,3-dichloro-phenyl)ureido]-1H-pyrazol-1-yl}-phenyl)propionic acid] | 6 | 2500 | 3.3 | 170 | – | – | – |
| CC(C)(C)c1cc(NC(=O)Nc2cccc(Cl)c2Cl)n(-c2cc(CO)c3ccccc3c2)n1 [Example 60, 1-[5-t-butyl-2-(4-hydroxymethylnaphthalen-2-yl)-2H-pyrazol-3-yl]-3-(2,3-dichloro-phenyl)urea] | 18 | 63 | 2.6 | 62 | – | – | – |
| CC(C)(C)c1cc(NC(=O)Nc2cccc(Cl)c2Cl)n(-c2cc(CN)c3ccccc3c2)n1 [Example 69, 1-[1-(4-(aminomethyl)naphthalen-2-yl)-3-t-butyl-1H-pyrazol-5-yl]-3-(2,3-dichlorophenyl)urea] | 110 | 140 | 4.2 | 400 | – | – | – |
| CC(C)(C)c1cc(NC(=O)Nc2cccc(Cl)c2Cl)n(-c2cc(CNC(=O)NS(C)(=O)=O)c3ccccc3c2)n1 [Example 75, 1-{3-t-butyl-1-[1-(methanesulfonylureidoamidomethyl)naphthalen-3-yl]-1H-pyrazol-5-yl}-3-(2,3-dichlorophenyl-1-yl)urea] | 6 | 63 | 4.2 | 140 | – | – | – |
| CC(C)(C)c1cc(NC(=O)Nc2cccc(Cl)c2Cl)n(-c2ccc3c(c2)NCC3)n1 [Example 112, 1-(3-t-butyl-1-(indolin-6-yl)-1H-pyrazol-5-yl)-3-(2,3-dichlorophenyl)urea] | 12 | 480 | 2.9 | 210 | – | – | – |
| CC(C)(C)c1cc(NC(=O)Nc2cccc(Cl)c2Cl)n(-c2ccc3c(c2)C(=O)NCC3)n1 [Example 122, 1-[3-t-butyl-1-(1-oxo-1,2,3,4-tetrahydroisoquinolin-7-yl)-1H-pyrazol-5-yl]-3-(2,3-di-chlorophenyl)urea] | 130 | 2800 | 11 | 1400 | – | – | – |
| CC(=O)N1CCc2ccc(-n3nc(C(C)(C)C)cc3NC(=O)Nc3cccc(Cl)c3Cl)cc2C1 [Example 126, 1-[1-(2-acetyl-1,2,3,4-tetrahydroisoquinolin-7-yl)-3-t-butyl-1H-pyrazol-5-yl]-3-(2,3-dichlorophenyl)urea] | 10 | 440 | 6.5 | 210 | – | – | – |
| CC(C)(C)c1cc(NC(=O)Nc2cccc(Cl)c2Cl)n(-c2ccc3c(c2)CN(S(C)(=O)=O)CC3)n1 [Example 127, 1-{3-t-butyl-1-[2-(methanesulfonyl)-1,2,3,4-tetrahydroisoquinolin-7-yl]-1H-pyrazol-5-yl}-3-(2,3-dichlorophenyl)urea] | 13 | 220 | 3.4 | 220 | – | – | – |
| CC(C)(C)c1cc(NC(=O)Nc2cccc(Cl)c2Cl)n(-c2ccc3c(c2)C(N)=NCC3)n1 [Example 129, 1-[1-(1-amino-3,4-dihydroisoquinolin-7-yl)-3-t-butyl-1H-pyrazol-5-yl]-3-(2,3-dichlorophenyl)urea] | 130 | 270 | 4.2 | 500 | – | – | – |
| CC(C)(C)c1cc(NC(=O)Nc2cccc(Cl)c2Cl)n(-c2ccc3c(c2)CCC(=O)N3)n1 [Example 131, 1-[3-t-butyl-1-(2-oxo-1,2,3,4-tetrahydroquinolin-6-yl)-1H-pyrazol-5-yl]-3-(2,3-dichlorophenyl)urea] | 33 | 280 | 1.9 | 77 | – | – | – |
| CC(C)(C)c1cc(NC(=O)Nc2cccc(Cl)c2Cl)n(-c2ccc3c(c2)CCCN3)n1 [Example 135, 1-[3-t-butyl-1-(1,2,3,4-tetrahydroquinolin-6-yl)-1H-pyrazol-5-yl]-3-(2,3-dichlorophenyl)urea hydrochloride] | – | – | 4.5 | – | 44 | 840 | 270 |
| CC(C)(C)c1cc(NC(=O)Nc2cccc(Cl)c2Cl)n(-c2ccc3c(c2)CCCN3C(=N)N)n1 [Example 136, 1-[3-t-butyl-1-(1-amidino-1,2,3,4-tetrahydroquinolin-6-yl]-1H-pyrazol-5-yl)-3-(2,3-dichlorophenyl)urea] | 130 | 100 | 4.9 | 29 | – | – | – |
| CC(C)(C)c1cc(NC(=O)Nc2cccc(Cl)c2Cl)n(-c2ccc3c(c2)CCNC3=O)n1 [Example 137, 1-(3-t-butyl-1-(1-oxo-1,2,3,4-tetrahydroisoquinolin-6-yl)-1H-pyrazol-5-yl)-3-(2,3-dichloro-phenyl)urea] | 55 | 150 | 2.5 | 1000 | – | – | – |
| CC(C)(C)c1cc(NC(=O)Nc2cccc(Oc3ccccc3)c2)n(-c2ccc3c(c2)CCNC3)n1 [Example 140, 1-(3-t-butyl-1-(1,2,3,4-tetrahydro-isoquinolin-6-yl)-1H-pyrazol-5-yl)-3-(3-phenoxyphenyl)urea] | – | 120 | 4.6 | 2300 | – | – | – |
| CC(C)(C)c1cc(NC(=O)Nc2ccc(Oc3ccccc3)cc2)n(-c2ccc3c(c2)CCNC3)n1 [Example 143, 1-(3-t-butyl-1-(1,2,3,4-tetrahydroiso-quinolin-6-yl)-1H-pyrazol-5-yl)-3-(4-phenoxyphenyl)-urea] | – | 250 | 14 | 940 | – | – | – |
| CC(C)(C)c1cc(NC(=O)Nc2cccc(Cl)c2Cl)n(-c2ccc3c(c2)CCN(S(C)(=O)=O)C3)n1 [Example 154, 1-(3-t-butyl-1-(2-(methylsulfonyl)-1,2,3,4-tetrahydroisoquinolin-6-yl)-1H-pyrazol-5-yl)-3-(2,3-dichlorophenyl)urea] | 12 | 270 | 2.9 | 92 | – | – | – |
| CC(C)(C)c1cc(NC(=O)Nc2cccc(Cl)c2Cl)n(-c2ccc3c(c2)CCNC(=O)C3)n1 [Example 165, 1-(3-t-butyl-1-(2-oxo-2,3,4,5-tetrahydro-1H-benzo[d]azepin-7-yl)-1H-pyrazol-5-yl)-3-(2,3-dichlorophenyl)urea] | 7 | 200 | 2.4 | 210 | – | – | – |
| CC(C)(C)c1cc(NC(=O)Nc2cccc(Cl)c2Cl)n(-c2ccc3c(c2)CCNCC3)n1 [Example 166, 1-(3-t-butyl-1-(2,3,4,5-tetrahydro-1H-benzo[d]azepin-7-yl)-1 H-pyrazol-5-yl)-3-(2,3-dichlorophenyl)urea] | 61 | 230 | 5.7 | 210 | – | – | – |
| CNC(=O)[C@@H]1Cc2ccc(-n3nc(C(C)(C)C)cc3NC(=O)Nc3cccc(Cl)c3Cl)cc2CN1 [Example 187, 1-(3-t-butyl-1-((3S)-3-(methylcarbamoyl)-1,2,3,4-tetrahydroisoquinolin-7-yl)-1H-pyrazol-5-yl)-3 (2,3-dichlorophenyl)urea] | – | 560 | 3 | 150 | – | – | – |
